Measured values: ChEMBL document CHEMBL1201862, “PubChem BioAssay data set” (2004)
The source made the active and inactive calls.

Experiments:
[1] = target: T1, Eukaryotic translation initiation factor 2-alpha kinase 3 (Homo sapiens, UniProt Q9NZJ5); assay: Dose response cell-based high-throughput screening assay to measure PERK inhibition. [Related pubchem assays: 1416 ]; type: functional
T1 sequence (Q9NZJ5 whole entry): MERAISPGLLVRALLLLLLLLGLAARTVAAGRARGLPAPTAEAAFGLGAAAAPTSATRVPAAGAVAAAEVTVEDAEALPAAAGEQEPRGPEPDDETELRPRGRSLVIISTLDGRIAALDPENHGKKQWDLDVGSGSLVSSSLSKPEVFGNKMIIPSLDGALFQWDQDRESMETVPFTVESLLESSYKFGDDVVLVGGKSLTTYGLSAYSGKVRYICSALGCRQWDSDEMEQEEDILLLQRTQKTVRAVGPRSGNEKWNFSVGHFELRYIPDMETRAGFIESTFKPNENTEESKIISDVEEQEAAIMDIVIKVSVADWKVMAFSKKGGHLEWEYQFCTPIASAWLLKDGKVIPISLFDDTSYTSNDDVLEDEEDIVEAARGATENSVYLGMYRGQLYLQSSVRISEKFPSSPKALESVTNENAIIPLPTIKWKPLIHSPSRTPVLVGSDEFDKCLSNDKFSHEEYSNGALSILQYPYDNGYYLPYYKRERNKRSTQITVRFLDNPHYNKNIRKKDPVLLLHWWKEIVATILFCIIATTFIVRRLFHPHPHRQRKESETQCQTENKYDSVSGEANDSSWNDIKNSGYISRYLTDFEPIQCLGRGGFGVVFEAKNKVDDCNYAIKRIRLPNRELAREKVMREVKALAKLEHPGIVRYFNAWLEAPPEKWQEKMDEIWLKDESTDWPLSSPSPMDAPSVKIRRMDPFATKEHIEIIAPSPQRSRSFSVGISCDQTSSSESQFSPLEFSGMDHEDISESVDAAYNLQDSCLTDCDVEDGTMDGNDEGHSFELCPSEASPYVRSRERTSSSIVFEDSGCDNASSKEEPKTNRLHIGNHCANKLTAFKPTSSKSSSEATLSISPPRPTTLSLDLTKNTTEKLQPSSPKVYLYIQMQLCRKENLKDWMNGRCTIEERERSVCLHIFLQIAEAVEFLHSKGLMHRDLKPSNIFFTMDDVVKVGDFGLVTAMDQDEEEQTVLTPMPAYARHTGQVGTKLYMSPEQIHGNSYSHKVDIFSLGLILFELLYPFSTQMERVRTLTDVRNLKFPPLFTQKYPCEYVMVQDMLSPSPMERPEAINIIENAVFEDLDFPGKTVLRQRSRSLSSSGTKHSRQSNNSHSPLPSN

[2] = target: T1, Eukaryotic translation initiation factor 2-alpha kinase 3; assay: Counterscreen assay for PERK inhibitors: Dose response cell-based high throughput screening assay to measure inhibition of PERK at 6 hours. [Related pubchem assays: 1522, 1416 ]; type: functional
Protein skinhead-1 = target: T2, Protein skinhead-1 (Caenorhabditis elegans, UniProt P34707); type: functional
T2 sequence (P34707 whole entry): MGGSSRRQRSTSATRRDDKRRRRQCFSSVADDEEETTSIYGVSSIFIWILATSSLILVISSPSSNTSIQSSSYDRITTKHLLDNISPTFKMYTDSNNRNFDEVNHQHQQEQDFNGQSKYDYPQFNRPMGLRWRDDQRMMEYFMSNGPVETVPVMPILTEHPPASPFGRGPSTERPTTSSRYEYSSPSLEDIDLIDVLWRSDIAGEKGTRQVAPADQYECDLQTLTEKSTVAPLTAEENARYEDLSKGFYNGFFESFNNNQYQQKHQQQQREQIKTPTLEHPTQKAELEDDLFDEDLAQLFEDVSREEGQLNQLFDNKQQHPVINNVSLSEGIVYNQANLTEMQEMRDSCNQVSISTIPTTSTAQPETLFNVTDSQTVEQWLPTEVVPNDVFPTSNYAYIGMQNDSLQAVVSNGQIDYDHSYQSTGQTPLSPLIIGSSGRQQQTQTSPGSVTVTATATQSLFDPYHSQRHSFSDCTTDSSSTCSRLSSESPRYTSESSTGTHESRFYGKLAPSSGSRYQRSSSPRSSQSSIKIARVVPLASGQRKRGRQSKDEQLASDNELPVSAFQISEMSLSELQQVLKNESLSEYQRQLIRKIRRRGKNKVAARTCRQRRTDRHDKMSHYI

X-box-binding protein 1 = X-box-binding protein 1 (Homo sapiens, UniProt P17861); type: functional, Cricetulus griseus;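 further: confirmatory dose-response counter-screen serving a CHOP assay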
[3] = target: T3, Replicative DNA helicase DnaB (Mycobacterium tuberculosis, UniProt P9WMR3); assay: DnaB intein splicing inhibitors, dose response, biochemical, cell-free fluorescence (AID 449749); type: functional
T3 sequence (P9WMR3 whole entry): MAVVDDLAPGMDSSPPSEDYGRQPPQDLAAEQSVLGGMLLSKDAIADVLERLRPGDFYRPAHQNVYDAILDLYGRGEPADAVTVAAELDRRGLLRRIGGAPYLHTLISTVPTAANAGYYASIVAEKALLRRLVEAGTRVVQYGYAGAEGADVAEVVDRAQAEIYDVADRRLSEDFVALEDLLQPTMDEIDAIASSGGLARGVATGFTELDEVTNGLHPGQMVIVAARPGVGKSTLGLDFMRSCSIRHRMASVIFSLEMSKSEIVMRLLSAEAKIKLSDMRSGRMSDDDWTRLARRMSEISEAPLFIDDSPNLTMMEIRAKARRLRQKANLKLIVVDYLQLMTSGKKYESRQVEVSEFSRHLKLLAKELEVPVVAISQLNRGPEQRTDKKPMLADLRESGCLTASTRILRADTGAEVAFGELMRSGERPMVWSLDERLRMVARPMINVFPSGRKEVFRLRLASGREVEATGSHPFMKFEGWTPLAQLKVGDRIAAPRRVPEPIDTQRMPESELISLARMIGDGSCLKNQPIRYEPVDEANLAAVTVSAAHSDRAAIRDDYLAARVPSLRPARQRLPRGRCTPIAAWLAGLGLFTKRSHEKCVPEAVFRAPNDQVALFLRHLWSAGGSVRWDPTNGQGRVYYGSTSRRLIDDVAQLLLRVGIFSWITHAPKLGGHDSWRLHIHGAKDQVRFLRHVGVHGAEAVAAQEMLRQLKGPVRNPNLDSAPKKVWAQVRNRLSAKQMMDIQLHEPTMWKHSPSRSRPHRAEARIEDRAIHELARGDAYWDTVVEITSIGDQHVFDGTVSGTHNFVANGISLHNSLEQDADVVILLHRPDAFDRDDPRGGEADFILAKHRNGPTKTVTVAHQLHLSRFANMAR

Protein RecA = target: T4, Protein RecA (Mycobacterium tuberculosis, UniProt P9WHJ3); assay: Fluorescence Cell-Free Homogeneous Dose Retest to Identify Inhibitors of RecA-Intein Splicing Activity. [Related pubchem assays (depositor defined):AID2097, AID2223, AID489010, AID492950]; type: functional
T4 sequence (P9WHJ3 whole entry): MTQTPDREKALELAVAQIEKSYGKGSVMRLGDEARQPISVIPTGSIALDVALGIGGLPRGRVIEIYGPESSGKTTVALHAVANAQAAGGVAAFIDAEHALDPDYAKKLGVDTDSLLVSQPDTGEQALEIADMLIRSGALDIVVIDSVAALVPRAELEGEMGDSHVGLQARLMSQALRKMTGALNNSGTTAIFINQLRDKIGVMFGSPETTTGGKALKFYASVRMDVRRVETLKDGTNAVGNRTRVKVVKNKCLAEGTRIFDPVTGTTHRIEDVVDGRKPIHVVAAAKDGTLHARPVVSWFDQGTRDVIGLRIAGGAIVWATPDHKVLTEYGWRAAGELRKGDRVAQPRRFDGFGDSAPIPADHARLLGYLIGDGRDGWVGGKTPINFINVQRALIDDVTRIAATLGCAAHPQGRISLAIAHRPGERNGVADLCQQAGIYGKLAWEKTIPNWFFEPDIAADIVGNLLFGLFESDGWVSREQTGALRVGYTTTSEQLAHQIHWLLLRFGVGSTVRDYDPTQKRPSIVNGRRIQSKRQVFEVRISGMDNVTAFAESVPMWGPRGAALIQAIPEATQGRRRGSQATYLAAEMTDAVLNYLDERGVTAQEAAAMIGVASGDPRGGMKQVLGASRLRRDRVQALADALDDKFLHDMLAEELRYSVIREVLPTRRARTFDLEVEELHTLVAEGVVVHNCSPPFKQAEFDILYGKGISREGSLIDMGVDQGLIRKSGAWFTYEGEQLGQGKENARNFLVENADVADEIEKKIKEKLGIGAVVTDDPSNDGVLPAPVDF

HeLa = assay: viability loss in HeLa cells – cell-based, 24 h, cherry-picked samples, cytotoxicity control, dose response (AID 504726); type: functional; settings: Homo sapiens;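 further: potency for cytotoxicity as loss of luminescence signal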
Salmon testes DNA = assay: acridine orange-DNA binding displacement – biochemical, fluorescence polarization, cherry-picked samples, set 2, artefact control for KSHV LANA DNA-binding inhibitor project, dose response (AID 504727); design: species or system Salmonidae
ORF 73 = target: T5, ORF 73 (Human herpesvirus 8, UniProt O40947); assay: KSHV LANA DNA-binding disruption – biochemical, fluorescence polarization, cherry-picked samples, dose response (AID 504725); design: species or system Human gammaherpesvirus 8;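 further: fluorescence polarization of a labeled DNA duplex reporting LANA DNA binding; potency is for inhibitors that block LANA binding to the DNA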
T5 sequence (O40947 whole entry): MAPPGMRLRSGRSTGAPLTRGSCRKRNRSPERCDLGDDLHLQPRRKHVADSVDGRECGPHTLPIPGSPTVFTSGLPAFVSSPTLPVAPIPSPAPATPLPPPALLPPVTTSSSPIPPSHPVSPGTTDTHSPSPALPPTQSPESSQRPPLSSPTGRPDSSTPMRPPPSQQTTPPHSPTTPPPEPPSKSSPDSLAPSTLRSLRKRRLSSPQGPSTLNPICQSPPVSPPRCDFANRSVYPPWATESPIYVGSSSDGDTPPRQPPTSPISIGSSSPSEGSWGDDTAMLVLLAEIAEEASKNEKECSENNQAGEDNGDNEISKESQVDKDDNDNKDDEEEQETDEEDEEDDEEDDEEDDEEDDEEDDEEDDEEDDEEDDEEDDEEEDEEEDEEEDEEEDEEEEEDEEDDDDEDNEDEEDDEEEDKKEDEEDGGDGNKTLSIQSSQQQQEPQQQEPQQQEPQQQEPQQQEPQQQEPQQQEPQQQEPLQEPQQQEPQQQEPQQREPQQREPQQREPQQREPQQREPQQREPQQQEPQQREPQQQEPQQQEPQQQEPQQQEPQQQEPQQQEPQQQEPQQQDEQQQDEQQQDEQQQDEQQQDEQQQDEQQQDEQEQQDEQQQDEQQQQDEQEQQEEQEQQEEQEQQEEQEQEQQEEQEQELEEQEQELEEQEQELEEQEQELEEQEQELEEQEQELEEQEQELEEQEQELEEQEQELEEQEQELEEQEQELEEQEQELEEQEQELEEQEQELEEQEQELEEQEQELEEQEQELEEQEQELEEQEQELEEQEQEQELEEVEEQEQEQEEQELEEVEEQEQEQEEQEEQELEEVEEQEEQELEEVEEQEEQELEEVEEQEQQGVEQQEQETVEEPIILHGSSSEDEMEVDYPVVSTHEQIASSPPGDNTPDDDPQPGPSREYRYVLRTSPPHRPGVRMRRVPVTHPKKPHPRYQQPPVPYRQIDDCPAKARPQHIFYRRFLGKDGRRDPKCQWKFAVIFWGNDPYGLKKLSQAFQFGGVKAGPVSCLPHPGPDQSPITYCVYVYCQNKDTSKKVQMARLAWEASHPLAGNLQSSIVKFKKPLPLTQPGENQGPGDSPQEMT

[4] = target: T6, Endoribonuclease toxin MazF (Escherichia coli K-12, UniProt P0AE70); assay: activation of MazEF endoribonuclease cleavage – biochemical, fluorescence, single-stranded RNA substrate, uHTS hits, dose response (AID 588481); type: functional
T6 sequence (P0AE70 whole entry): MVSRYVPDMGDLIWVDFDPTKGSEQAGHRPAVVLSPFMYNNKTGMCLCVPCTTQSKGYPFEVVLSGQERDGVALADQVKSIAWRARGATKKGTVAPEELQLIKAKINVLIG

[5] = target: T6, Endoribonuclease toxin MazF; assay: substrate-only fluorescence increase artefacts – biochemical, single-stranded RNase substrate, counter-screen for MazEF activator project, dose response (AID 588502); type: functional
[6] = target: Lysosomal acid glucosylceramidase (Homo sapiens, UniProt P04062); assay: Dose response cell-based high throughput screening assay to identify enhancers of beta-glucosidase activity. [Related pubchem assays: 784 ]; type: functional
[7] = Cytotoxicity screening for potential Inhibitors of Bacterial Capsule Biogenesis. [Related pubchem assays (depositor defined):AID488970]; type: functional
INS1 = assay: INS-1E survival protection against cytokine death – cell-based, luminescence, retest, dose response (AID 449756); type: functional; settings: Rattus norvegicus, INS1;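 further: cell death triggered by IL-1 beta plus TNF-alpha plus IFN-gamma mixture; protective hits raise ATP signal compared with cytokine alone wells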

Lysosomal acid glucosylceramidase, sequence (P04062 whole entry): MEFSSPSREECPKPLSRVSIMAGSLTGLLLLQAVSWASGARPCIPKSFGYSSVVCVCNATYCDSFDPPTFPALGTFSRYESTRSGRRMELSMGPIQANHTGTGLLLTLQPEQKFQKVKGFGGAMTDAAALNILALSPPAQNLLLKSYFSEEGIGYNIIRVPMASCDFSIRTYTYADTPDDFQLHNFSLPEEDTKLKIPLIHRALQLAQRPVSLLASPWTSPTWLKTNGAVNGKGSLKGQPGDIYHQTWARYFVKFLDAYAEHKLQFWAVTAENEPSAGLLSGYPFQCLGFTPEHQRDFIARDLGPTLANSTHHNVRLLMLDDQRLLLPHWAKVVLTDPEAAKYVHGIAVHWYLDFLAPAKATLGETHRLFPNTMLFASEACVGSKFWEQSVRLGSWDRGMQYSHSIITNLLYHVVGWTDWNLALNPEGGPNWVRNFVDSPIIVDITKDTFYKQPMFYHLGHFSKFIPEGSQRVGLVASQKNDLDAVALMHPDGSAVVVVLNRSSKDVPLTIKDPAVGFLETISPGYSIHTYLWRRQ
X-box-binding protein 1, sequence (P17861 whole entry): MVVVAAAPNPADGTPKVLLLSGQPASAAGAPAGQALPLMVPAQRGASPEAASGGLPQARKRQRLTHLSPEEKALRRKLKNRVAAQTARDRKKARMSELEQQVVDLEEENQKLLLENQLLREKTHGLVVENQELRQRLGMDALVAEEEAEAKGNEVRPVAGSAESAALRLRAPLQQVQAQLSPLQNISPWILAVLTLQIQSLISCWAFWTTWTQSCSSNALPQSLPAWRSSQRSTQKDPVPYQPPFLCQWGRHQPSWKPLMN

CCOc1cc(C(N)=O)cc(Br)c1OC
EC50 [1]: > 55.7 µM (not active)
EC50 [2]: > 55.7 µM (not active)
IC50 (Protein skinhead-1): > 100 µM (inactive)

CC1(C)CC(C(CCN(Cc2ccccc2)C(=O)c2ccco2)c2ccc(F)cc2)CCO1 (centres undefined)
Absolute IC50 (XBP1) (X-box-binding protein 1): 10 µM
AC50 [3]: 6.07 µM (active)
EC50 (Protein RecA): 20.9 µM (active)

COc1ccc2c(c1)c1nc3ccccc3nc1n2CC(=O)OC(C)C
AC50 (HeLa): 216 µM (active)
AC50 (Salmon testes DNA): 134 µM (active)
AC50 (ORF 73): 77 µM (active)
EC50 [4]: > 99 µM (inactive)
EC50 [5]: 19.6 µM (active)

CC(=O)N1C(C(=O)O)CSC1c1cccc(C)c1 (centres undefined)
EC50 [6]: > 50 µM (not active)

O=C(N/N=C/c1ccc(O)cc1O)c1ccc(NC(=O)C2CCCCC2)cc1
CC50 [7]: 8.95 µM (active)
AC50 (INS1): 4.01 µM (active)
